SMILES strings stand for the structures.

The series is described as follows: method code SF-AS, from DOI: 10.1016/0378-5173(79)90126-1. The following applies: pH 3.5.
Compound `CNC(=O)NC(=O)C(C)(C(=O)OCOC)C1=CCCCC1` (stereo not given) had a pH-dependent lipophilicity (logD) of 1.8.

Take `CNC(=O)NC(=O)C(C)(C(=O)OC)C1C=CCCC1` (stereo not given): the logD turned out to be 1.75.

Compound `CCC(CC)(C(=O)NC(N)=O)C(=O)OC(C)C` registered a logD of 1.99.

`C=CCC(CC=C)(C(=O)NC(N)=O)C(=O)OC` had a log distribution coefficient (logD) of 1.37.

`CCC(CC)(C(=O)NC(N)=O)C(=O)OC` returned a logD of 0.95.

`CCC(C(=O)NC(N)=O)(C(=O)OC)c1ccccc1` (stereo not given) registered a log distribution coefficient (logD) of 1.58.

`CCC(CC)(C(=O)NC(N)=O)C(=O)OCc1ccccc1` displayed a log distribution coefficient (logD) of 2.74.

Regarding `CCNC(=O)NC(=O)C(C)(C(=O)OC)C1=CCCCC1` (stereo not given), the log distribution coefficient (logD) stood at 2.25.

`CCC(CC)(C(=O)NC(N)=O)C(=O)OCC(=O)OC`: the logD turned out to be 0.99.

`CCOC(=O)C(CC)(CC)C(=O)NC(N)=O`: the logD is 1.45.

For the origin of these results see the SangsterLogP compilation.
